Experiments:
KRAS G12D = KRAS G12D (Homo sapiens, UniProt P01116, G12D); test: GDP-GTP exchange assay (KRAS G12D); type: biochemical; settings: bodipy-GDP/GppNHp exchange with SOS1; 4 h pre-incubation, 2 h reaction;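 note: one dagger IC50 up to 100 nM and two daggers above 100 nM up to 1 μM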
Procedure: (§1) The inhibitor potency of the exemplified compounds was determined in a fluorescence based guanine nucleotide exchange assay, which measures the exchange of bodipy-GDP (fluorescently labeled GDP) for GppNHp (Non-hydrolyzable GTP analog) to generate the active state of KRAS in the presence of SOS1 (guanine nucleotide exchange factor). Inhibitors were serially diluted in DMSO and a volume of 0.1 μL was transferred to the wells of a black low volume 384-well plate. 5 μL/well volume of bodipy-loaded KRAS G12D diluted to 2.5 nM in assay buffer (25 mM Hepes pH 7.5, 50 mM NaCl, 10 mM MgCl2 and 0.01% Brij-35) was added to the plate and pre-incubated with inhibitor for 4 h at r.t. Appropriate controls (enzyme with no inhibitor or with a G12D inhibitor) were included on the plate. The exchange was initiated by the addition of a 5 μL/well volume containing 1 mM GppNHp and 300 nM SOS1 in assay buffer. The 10 μL/well reaction concentration of the bodipy-loaded KRAS G12D, GppNHp, and SOS1 were 2.5 nM, 500 μM, and 150 nM, respectively. The reaction plates were incubated at r.t. for 2 h, a time estimated for complete GDP-GTP exchange in the absence of inhibitor. For the KRAS G12V mutant, similar guanine nucleotide exchange assays were used with 2.5 nM as final concentration for the bodipy loaded KRAS proteins and 3 h incubation after adding GppNHp-SOS1 mixture. A cyclic peptide described to selectively bind G12D mutant (Sakamoto et al., BBRC 484.3 (2017), 605-611) or internal compounds with confirmed binding were used as positive controls in the assay plates. Fluorescence intensities were measured on a PheraStar plate reader instrument (BMG Labtech) with excitation at 485 nm and emission at 520 nm.
(§2) Either GraphPad prism or Genedata Screener SmartFit was used to analyze the data. The IC50 values were derived by fitting the data to a four parameter logistic equation producing a sigmoidal dose-response curve with a variable Hill coefficient.
(§3) The symbol “⬆” indicates IC50 100 nM, “⬆⬆” indicates IC50 >100 nM but ≤1 μM; and “⬆⬆⬆” indicates IC50 is >1 μM but ≤5 μM, “⬆⬆⬆⬆” indicates IC50 is >5 μM but ≤10 μM. “NA” indicates IC50 not available.

KRAS G12V = KRAS G12V (Homo sapiens, UniProt P01116, G12V); test: GDP-GTP exchange assay (KRAS G12V); type: biochemical; settings: bodipy-GDP/GppNHp exchange with SOS1; 3 h incubation after GppNHp-SOS1;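 note: one dagger IC50 up to 100 nM and two daggers above 100 nM up to 1 μM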
Procedure: as §1, §2, §3

[1] = Caco2 assay (permeability, Papp A-B); type: in vitro ADME; settings: human, Caco-2, absorptive direction (A-B), 50 μM test compound, 4% BSA in receiver
Procedure: Caco-2 cells are grown at 37° C. in an atmosphere of 5% CO2 in DMEM growth medium supplemented with 10% (v/v) fetal bovine serum, 1% (v/v) nonessential amino acids, penicillin (100 U/mL), and streptomycin (100 μg/mL). Confluent cell monolayers are subcultured every 7 days or 4 days for Caco-2 by treatment with 0.05% trypsin containing […]. Caco-2 cells are seeded in 96-well Transwell plates. The seeding density for Caco-2 cells is 14,000 cells/well. DMEM growth medium is replaced every other day after seeding. Cell monolayers are used for transport assays between 22 and 25 days for Caco-2 cells.
Cell culture medium is removed and replaced with HBSS. To measure the TEER, the HBSS is added into the donor compartment (apical side) and receiver compartment (basolateral side). The TEER is measured by using a REMS Autosampler to ensure the integrity of the cell monolayers. Caco-2 cell monolayers with TEER values 300 Ω·cm^2 are used for transport experiments. To determine the Papp in the absorptive direction (A-B), solution of test compound (50 μM) in HBSS is added to the donor compartment (apical side), while HBSS solution with 4% BSA is added to the receiver compartment (basolateral side). The apical volume was 0.075 mL, and the basolateral volume is 0.25 mL. The incubation period is 120 min. at 37° C. in an atmosphere of 5% CO2. At the end of the incubation period, samples from the donor and receiver sides are removed and an equal volume of MeCN is added for protein precipitation. The supernatants are collected after centrifugation (3000 rpm, Allegra X-14R Centrifuge from Beckman Coulter, Indianapolis, IN) for LCMS analysis. The permeability value is determined according to the equation:
Papp(cm/s)=(F*VD)/(SA*MD),
where the flux rate (F, mass/time) is calc. from the slope of cumulative amounts of compound of interest on the receiver side, SA is the surface area of the cell membrane, VD is the donor volume, and MD is the initial amount of the solution in the donor chamber.
The symbol “+” indicates a Caco-2 value of ≤0.5, “++” indicates a Caco-2 value of >0.5 but ≤1; and “+++” indicates a Caco-2 value of >1. “NA” indicates Caco-2 value not available.

KRAS G12D, sequence (P01116 1-188 isoform P01116-2 G12D): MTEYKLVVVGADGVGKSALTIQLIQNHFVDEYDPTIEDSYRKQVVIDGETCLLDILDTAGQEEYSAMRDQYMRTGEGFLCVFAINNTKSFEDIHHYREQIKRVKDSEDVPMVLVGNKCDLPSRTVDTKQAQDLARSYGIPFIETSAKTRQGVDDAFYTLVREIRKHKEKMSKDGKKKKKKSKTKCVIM
KRAS G12V, sequence (P01116 1-188 isoform P01116-2 G12V): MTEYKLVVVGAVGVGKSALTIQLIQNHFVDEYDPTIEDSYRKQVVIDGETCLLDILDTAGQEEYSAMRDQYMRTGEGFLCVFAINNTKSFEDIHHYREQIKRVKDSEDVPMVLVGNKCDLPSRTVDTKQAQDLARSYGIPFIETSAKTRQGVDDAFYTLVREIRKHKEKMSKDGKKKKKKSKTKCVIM

SMILES	G12D_exchange (KRAS_G12D exchange assay IC50) (KRAS G12D)	G12V_exchange (KRAS_G12V exchange assay IC50) (KRAS G12V)	Papp A→B at 120 min, 50 μM [1] [×10⁻⁶ cm/s]
Cc1nc2c(F)c(-c3cccc(Cl)c3Cl)c(CCC#N)cc2c2c1cc([C@H]1[C@H]3C[C@H](CN(c4ccnc(Br)c4)C3)N1C(=O)C1CC1)n2[C@H]1[C@H]2CN[C@@H]1C2 (atropisomer, axis not shown; (Ra)) [Example 74, 3-((Ra)-1-((1R,4R,5S)-2-azabicyclo[2.1.1]hexan-5-yl)-2-((1S,5R,7R)-3-(2-bromopyridin-4-yl)-6-(cyclopropanecarbonyl)-3,6-diazabicyclo[3.2.1]octan-7-yl)-7-(2,3-dichlorophenyl)-6-fluoro-4-methyl-1H-pyrrolo[3,2-c]quinolin-8-yl)propanenitrile]	†	†	≤ 0.5
COc1cc(N2C[C@@H]3C[C@H](C2)N(C(=O)C2CC2)[C@H]3c2cc3c(C)nc4c(F)c(-c5cccc(Cl)c5Cl)c(CCC#N)cc4c3n2[C@H]2[C@H]3CN[C@@H]2C3)ccn1 (atropisomer, axis not shown; (Ra)) [Example 59, 3-((Ra)-1-((1R,4R,5S)-2-azabicyclo[2.1.1]hexan-5-yl)-2-((1S,5R,7R)-6-(cyclopropanecarbonyl)-3-(2-methoxypyridin-4-yl)-3,6-diazabicyclo[3.2.1]octan-7-yl)-7-(2,3-dichlorophenyl)-6-fluoro-4-methyl-1H-pyrrolo[3,2-c]quinolin-8-yl)propanenitrile]	†	†	≤ 0.5
Cc1nc2c(F)c(-c3cccc(Cl)c3Cl)c(CCC#N)cc2c2c1cc([C@H]1[C@H]3C[C@H](CN(c4ccoc(=O)c4)C3)N1C(=O)C1CC1)n2[C@H]1[C@H]2CN[C@@H]1C2 (atropisomer, axis not shown; (Ra)) [Example 73, 3-((Ra)-1-((1R,4R,5S)-2-azabicyclo[2.1.1]hexan-5-yl)-2-((1S,5R,7R)-6-(cyclopropanecarbonyl)-3-(2-oxo-2H-pyran-4-yl)-3,6-diazabicyclo[3.2.1]octan-7-yl)-7-(2,3-dichlorophenyl)-6-fluoro-4-methyl-1H-pyrrolo[3,2-c]quinolin-8-yl)propanenitrile]	†	†	≤ 0.5
CCc1cnc(N2C[C@@H]3C[C@H](C2)N(C(=O)C2CC2)[C@H]3c2cc3c(C)nc4c(F)c(-c5cccc(Cl)c5Cl)c(CCC#N)cc4c3n2[C@H]2[C@H]3CN[C@@H]2C3)s1 (atropisomer, axis not shown; (Ra)) [Example 99, 3-((Ra)-1-((1R,4R,5S)-2-azabicyclo[2.1.1]hexan-5-yl)-2-((1S,5R,7R)-6-(cyclopropanecarbonyl)-3-(5-ethylthiazol-2-yl)-3,6-diazabicyclo[3.2.1]octan-7-yl)-7-(2,3-dichlorophenyl)-6-fluoro-4-methyl-1H-pyrrolo[3,2-c]quinolin-8-yl)propanenitrile]	†	†	≤ 0.5
Cc1sc(N2C[C@@H]3C[C@H](C2)N(C(=O)C2CC2)[C@H]3c2cc3c(C)nc4c(F)c(-c5cccc(Cl)c5Cl)c(CCC#N)cc4c3n2[C@H]2[C@H]3CN[C@@H]2C3)nc1C(C)(F)F (atropisomer, axis not shown; (Ra)) [Example 103, 3-((Ra)-1-((1R,4R,5S)-2-azabicyclo[2.1.1]hexan-5-yl)-2-((1S,5R,7R)-6-(cyclopropanecarbonyl)-3-(4-(1,1-difluoroethyl)-5-methylthiazol-2-yl)-3,6-diazabicyclo[3.2.1]octan-7-yl)-7-(2,3-dichlorophenyl)-6-fluoro-4-methyl-1H-pyrrolo[3,2-c]quinolin-8-yl)propanenitrile]	†	†	≤ 0.5
COC(=O)N1[C@@H]2C[C@@H](CN(c3ncc(OCC4CC4)cn3)C2)[C@@H]1c1cc2c(C)nc3c(F)c(-c4cccc(Cl)c4Cl)c(CCC#N)cc3c2n1[C@H]1[C@H]2CN[C@@H]1C2 (atropisomer, axis not shown; (Ra)) [Example 126, Methyl (1 S,5R,7R)-7-((Ra)-1-((1R,4R,5S)-2-azabicyclo[2.1.1]hexan-5-yl)-8-(2-cyanoethyl)-7-(2,3-dichlorophenyl)-6-fluoro-4-methyl-1H-pyrrolo[3,2-c]quinolin-2-yl)-3-(5-(cyclopropylmethoxy)pyrimidin-2-yl)-3,6-diazabicyclo[3.2.1]octane-6-carboxylate]		†	≤ 0.5
COC(=O)N1[C@@H]2C[C@@H](CN(c3nccnc3OC)C2)[C@@H]1c1cc2c(C)nc3c(F)c(-c4cccc(Cl)c4Cl)c(CCC#N)cc3c2n1[C@H]1[C@H]2CN[C@@H]1C2 (atropisomer, axis not shown; (Ra)) [Example 125, Methyl (1 S,5R,7R)-7-((Ra)-1-((1R,4R,5S)-2-azabicyclo[2.1.1]hexan-5-yl)-8-(2-cyanoethyl)-7-(2,3-dichlorophenyl)-6-fluoro-4-methyl-1H-pyrrolo[3,2-c]quinolin-2-yl)-3-(3-methoxypyrazin-2-yl)-3,6-diazabicyclo[3.2.1]octane-6-carboxylate]		†	> 1
Cc1nc2c(F)c(-c3cccc(Cl)c3Cl)c(CCC#N)cc2c2c1cc([C@H]1[C@H]3C[C@H](CN(c4cc(C(C)(F)F)ncn4)C3)N1C(=O)C1(F)CC1)n2[C@H]1[C@H]2CN[C@@H]1C2 (atropisomer, axis not shown; (Ra)) [Example 128, 3-((Ra)-1-((1R,4R,5S)-2-azabicyclo[2.1.1]hexan-5-yl)-7-(2,3-dichlorophenyl)-2-((1S,5R,7R)-3-(6-(1,1-difluoroethyl)pyrimidin-4-yl)-6-(1-fluorocyclopropane-1-carbonyl)-3,6-diazabicyclo[3.2.1]octan-7-yl)-6-fluoro-4-methyl-1H-pyrrolo[3,2-c]quinolin-8-yl)propanenitrile]		†	≤ 0.5
COC(=O)N1[C@@H]2C[C@@H](CN(c3cnc(C#N)cn3)C2)[C@@H]1c1cc2c(C)nc3c(F)c(-c4cccc(Cl)c4Cl)c(CCC#N)cc3c2n1[C@H]1[C@H]2CN[C@@H]1C2 (atropisomer, axis not shown; (Ra)) [Example 127, Methyl (1 S,5R,7R)-7-((Ra)-1-((1R,4R,5S)-2-azabicyclo[2.1.1]hexan-5-yl)-8-(2-cyanoethyl)-7-(2,3-dichlorophenyl)-6-fluoro-4-methyl-1H-pyrrolo[3,2-c]quinolin-2-yl)-3-(5-cyanopyrazin-2-yl)-3,6-diazabicyclo[3.2.1]octane-6-carboxylate]		†	≤ 0.5
